In the supplement of paper PMC10307832:

Assays:
Assay in all cases: relative viability (nuclei count vs DMSO), 5 days (fraction); higher = more cells survive
[1] = compound: C/C(=N\NC(=S)N1CCC1)/C2=CC=CC=N2 + O=C(c1cc(Cc2n[nH]c(=O)c3ccccc23)ccc1F)N1CCN(C(=O)C2CC2)CC1 [Olaparib] (partner 8 µM)
Outline: (§1)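 Lung cancer cell lines in 1536-well plates were dosed by pin tool the day after seeding, either with one drug alone or with a fixed anchor-drug dose plus five library-drug doses (not always all listed) in √10 steps. After 5 days, cells were fixed and their nuclei stained in one step (final 0.05% Triton X-100, 1% formaldehyde, 1 ug/ml Hoechst), then counted on 4× images. Relative viability is the nuclei count in treated wells divided by that in vehicle wells. Values are medians of duplicate plates.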

[2] = compound: C/C(=N\NC(=S)N1CCC1)/C2=CC=CC=N2 + NC(=O)Nc1cc(-c2cccc(F)c2)sc1C(=O)N[C@H]1CCCNC1 [AZD7762] (partner 0.2 µM)
Outline: as §1

[3] = compound: C/C(=N\NC(=S)N1CCC1)/C2=CC=CC=N2 + CS(=O)(=O)CCNCc1ccc(-c2ccc3ncnc(Nc4ccc(OCc5cccc(F)c5)c(Cl)c4)c3c2)o1 [Lapatinib] (partner 2 µM)
Outline: as §1

[4] = compound: C/C(=N\NC(=S)N1CCC1)/C2=CC=CC=N2 + Nc1ncn([C@H]2C[C@H](O)[C@@H](CO)O2)c(=O)n1 [Decitabine] (partner 2 µM)
Outline: as §1

Row | Cell Line | relative viability ([1]; first compound 0.05 µM) | relative viability ([1]; first compound 0.1581 µM) | relative viability ([1]; first compound 0.5 µM) | relative viability ([1]; first compound 1.581 µM) | relative viability ([1]; first compound 5 µM) | relative viability ([2]; first compound 0.05 µM) | relative viability ([2]; first compound 0.1581 µM) | relative viability ([2]; first compound 0.5 µM) | relative viability ([2]; first compound 1.581 µM) | relative viability ([2]; first compound 5 µM) | relative viability ([3]; first compound 0.05 µM) | relative viability ([3]; first compound 0.1581 µM) | relative viability ([3]; first compound 0.5 µM) | relative viability ([3]; first compound 1.581 µM) | relative viability ([3]; first compound 5 µM) | relative viability ([4]; first compound 0.05 µM) | relative viability ([4]; first compound 0.1581 µM) | relative viability ([4]; first compound 0.5 µM) | relative viability ([4]; first compound 1.581 µM) | relative viability ([4]; first compound 5 µM)
1 | HCC-827 | 0.333 | 0.227 | 0.203 | 0.145 | 0.175 | 0.14 | 0.176 | 0.104 | 0.106 | 0.172 | 0.161 | 0.168 | 0.201 | 0.211 | 0.19 | 0.253 | 0.244 | 0.237 | 0.182 | 0.185
2 | HOP-62 | 0.079 | 0.0776 | 0.0561 | 0.0753 | 0.0802 | 0.0756 | 0.0789 | 0.0592 | 0.0773 | 0.111 | 0.0752 | 0.0868 | 0.0479 | 0.0716 | 0.0698 | 0.121 | 0.142 | 0.0886 | 0.106 | 0.117
3 | IA-LM | 0.115 | 0.107 | 0.101 | 0.0716 | 0.0719 | – | – | – | – | – | 0.0819 | 0.067 | 0.0525 | 0.0618 | 0.0601 | – | – | – | – | –
4 | LC-2-ad | 0.234 | 0.21 | 0.199 | 0.196 | 0.2 | 0.212 | 0.202 | 0.182 | 0.165 | 0.163 | 0.113 | 0.122 | 0.106 | 0.112 | 0.122 | 0.267 | 0.244 | 0.204 | 0.227 | 0.22
5 | LCLC-103H | 0.3 | 0.613 | 0.222 | 0.236 | 0.256 | 0.272 | 0.219 | 0.27 | 0.185 | 0.262 | – | – | – | – | – | 0.346 | 0.684 | 0.329 | 0.342 | 0.291
6 | NCI-H441 | 0.167 | 0.136 | 0.125 | 0.113 | 0.138 | 0.264 | 0.178 | 0.173 | 0.144 | 0.153 | – | – | – | – | – | 0.185 | 0.163 | 0.17 | 0.134 | 0.126
7 | NCI-H520 | 0.122 | 0.131 | 0.125 | 0.106 | 0.143 | – | – | – | – | – | 0.131 | 0.148 | 0.12 | 0.12 | 0.144 | 0.161 | 0.167 | 0.145 | 0.159 | 0.17
8 | NCI-H522 | 0.291 | 0.335 | 0.303 | 0.311 | 0.329 | 0.307 | 0.279 | 0.24 | 0.292 | 0.397 | – | – | – | – | – | 0.402 | 0.456 | 0.333 | 0.345 | 0.385
9 | NCI-H661 | 0.244 | 0.239 | 0.202 | 0.243 | 0.219 | – | – | – | – | – | 0.187 | 0.184 | 0.2 | 0.201 | 0.198 | 0.274 | 0.26 | 0.218 | 0.236 | 0.232
10 | NCI-H1563 | – | – | – | – | – | – | – | – | – | – | 0.626 | 0.61 | 0.573 | 0.598 | 0.623 | – | – | – | – | –
11 | NCI-H1648 | 0.624 | 0.794 | 0.294 | 0.278 | 0.226 | 0.337 | 0.305 | 0.269 | 0.288 | 0.297 | – | – | – | – | – | 0.274 | 0.248 | 0.3 | 0.338 | 0.353
12 | NCI-H1650 | 0.13 | 0.158 | 0.125 | 0.166 | 0.152 | – | – | – | – | – | 0.257 | 0.204 | 0.192 | 0.267 | 0.199 | 0.189 | 0.141 | 0.141 | 0.206 | 0.186
13 | NCI-H1703 | 0.0864 | 0.132 | 0.103 | 0.0868 | 0.158 | 0.0509 | 0.0548 | 0.0472 | 0.114 | 0.102 | 0.185 | 0.153 | 0.17 | 0.168 | 0.178 | – | – | – | – | –
14 | NCI-H2009 | 0.0968 | 0.101 | 0.125 | 0.154 | 0.123 | – | – | – | – | – | 0.141 | 0.16 | 0.151 | 0.161 | 0.0978 | 0.114 | 0.155 | 0.144 | 0.136 | 0.117
15 | NCI-H2023 | 0.0912 | 0.0578 | 0.0664 | 0.0644 | 0.0565 | – | – | – | – | – | 0.0813 | 0.0823 | 0.106 | 0.064 | 0.0792 | 0.0753 | 0.0791 | 0.067 | 0.0569 | 0.0755
16 | NCI-H2228 | 0.125 | 0.142 | 0.138 | 0.115 | 0.107 | – | – | – | – | – | 0.144 | 0.162 | 0.136 | 0.0958 | 0.139 | – | – | – | – | –
17 | NCI-H2342 | 0.276 | 0.281 | 0.192 | 0.206 | 0.259 | 0.302 | 0.32 | 0.278 | 0.256 | 0.285 | – | – | – | – | – | 0.318 | 0.306 | 0.265 | 0.276 | 0.25
18 | SK-LU-1 | 0.162 | 0.175 | 0.22 | 0.135 | 0.15 | – | – | – | – | – | 0.301 | 0.149 | 0.14 | 0.142 | 0.204 | 0.274 | 0.327 | 0.25 | 0.246 | 0.294
19 | SK-MES-1 | 0.198 | 0.213 | 0.162 | 0.174 | 0.164 | – | – | – | – | – | 0.301 | 0.293 | 0.213 | 0.185 | 0.2 | 0.193 | 0.186 | 0.171 | 0.142 | 0.19
20 | SW 900 | 0.233 | 0.116 | 0.135 | 0.164 | 0.16 | 0.188 | 0.122 | 0.0988 | 0.188 | 0.171 | – | – | – | – | – | 0.21 | 0.231 | 0.16 | 0.201 | 0.17
21 | SW 1573 | 0.0806 | 0.0899 | 0.138 | 0.0631 | 0.0687 | – | – | – | – | – | 0.164 | 0.17 | 0.182 | 0.118 | 0.109 | 0.0582 | 0.119 | 0.111 | 0.0723 | 0.0647
22 | UMC-11 | 0.163 | 0.122 | 0.137 | 0.131 | 0.106 | – | – | – | – | – | 0.201 | 0.195 | 0.165 | 0.145 | 0.134 | 0.446 | 0.2 | 0.261 | 0.273 | 0.2
